Data: patent US20210045385A1, “PYRIDAZINONE-SUBSTITUTED KETOXIMES AS HERBICIDES” (FMC Corporation, priority 2018, published 2021)

How the values were obtained:
Type in all cases: in vivo
[1] = test system: pigweed (Amaranthus retroflexus); assay: Test C postemergence, visual plant response rating
Procedure, shortened: (§1)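 Compounds in a non-phytotoxic solvent with surfactant were applied as a directed soil spray preemergence or to 2–10 cm, one- to two-leaf plants postemergence, in loam–sand soil. After about 10 d in a greenhouse, injury was visually rated against untreated controls on a 0–100 scale (100 = complete control).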

[2] = test system: foxtail, giant (giant foxtail, Setaria faberi); assay: Test C postemergence, visual plant response rating
Procedure, shortened: as §1

[3] = test system: barnyardgrass (Echinochloa crus-galli); assay: Test C postemergence, visual plant response rating
Procedure, shortened: as §1

[4] = test system: ragweed (common ragweed, Ambrosia artemisiifolia); assay: Test C postemergence, visual plant response rating
Procedure, shortened: as §1

corn (Zea mays) = assay: Test C postemergence, visual plant response rating
Procedure, shortened: as §1

[5] = test system: blackgrass (Alopecurus myosuroides); assay: Test C postemergence, visual plant response rating
Procedure, shortened: as §1

kochia (Bassia scoparia) [6] = assay: Test C postemergence, visual plant response rating
Procedure, shortened: as §1

[7] = test system: wheat (Triticum aestivum); assay: Test C postemergence, visual plant response rating
Procedure, shortened: as §1

[8] = test system: Italian ryegrass (Lolium mutiflorum); assay: Test C postemergence, visual plant response rating
Procedure, shortened: as §1

[9] = test system: galium (catchweed bedstraw, Galium aparine); assay: Test C postemergence, visual plant response rating
Procedure, shortened: as §1

[10] = test system: pigweed (Amaranthus retroflexus); assay: Test C preemergence, visual plant response rating; details: Test C, 0 is no effect, 100 is complete control
Procedure, shortened: as §1

[11] = test system: foxtail, giant (giant foxtail, Setaria faberi); assay: Test C preemergence, visual plant response rating; details: Test C, 0 is no effect, 100 is complete control
Procedure, shortened: as §1

[12] = test system: barnyardgrass (Echinochloa crus-galli); assay: Test C preemergence, visual plant response rating; details: Test C, 0 is no effect, 100 is complete control
Procedure, shortened: as §1

kochia (Bassia scoparia) [13] = assay: Test C preemergence, visual plant response rating; details: Test C, 0 is no effect, 100 is complete control
Procedure, shortened: as §1

[14] = test system: Italian ryegrass (Lolium mutiflorum); assay: Test C preemergence, visual plant response rating; details: Test C, 0 is no effect, 100 is complete control
Procedure, shortened: as §1

[15] = test system: barnyardgrass (Echinochloa crus-galli); assay: Test D flooded paddy test, visual plant response rating; details: 250 g ai/ha, scale 0 to 100 (0 no effect, 100 complete control), 13 to 15 d
Procedure, shortened: (§2)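 Plants were grown to the 2-leaf stage, pots flooded to 3 cm above soil, and compound applied directly into the paddy water, with the depth held throughout. After 13 to 15 d in a greenhouse, response was rated visually against untreated controls on a 0–100 scale (0 no effect, 100 complete control).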

[16] = test system: duck salad (Heteranthera limosa); assay: as above; details: 250 g ai/ha, scale 0 to 100 (0 no effect, 100 complete control), 13 to 15 d
Procedure, shortened: as §2

rice (Oryza sativa) = assay: as above; details: 250 g ai/ha, scale 0 to 100 (0 no effect, 100 complete control), 13 to 15 d
Procedure, shortened: as §2

[17] = test system: sedge umbrella (small-flower umbrella sedge, Cyperus difformis); assay: as above; details: 250 g ai/ha, scale 0 to 100 (0 no effect, 100 complete control), 13 to 15 d
Procedure, shortened: as §2

[18] = Test C, postemergence, 125 g ai/ha

SMILES | Pigweed plant response rating (0 to 100 scale) ([1]; Postemergence, 31 g ai/ha) | Pigweed plant response rating (0 to 100 scale) [1, 18] | Foxtail, Giant plant response rating (0 to 100 scale) ([2]; Postemergence, 31 g ai/ha) | Foxtail, Giant plant response rating (0 to 100 scale) [2, 18] | Barnyardgrass plant response rating (0 to 100 scale) ([3]; Postemergence, 31 g ai/ha) | Barnyardgrass plant response rating (0 to 100 scale) [3, 18] | Ragweed plant response rating (0 to 100 scale) ([4]; Postemergence, 31 g ai/ha) | Ragweed plant response rating (0 to 100 scale) [4, 18] | Corn plant response rating (0 to 100 scale) (corn (Zea mays); Postemergence, 31 g ai/ha) | Corn plant response rating (0 to 100 scale) (corn (Zea mays); [18]) | Blackgrass plant response rating (0 to 100 scale) ([5]; Postemergence, 31 g ai/ha) | Blackgrass plant response rating (0 to 100 scale) [5, 18] | Kochia plant response rating (0 to 100 scale) (kochia (Bassia scoparia) [6]; Postemergence, 31 g ai/ha) | Kochia plant response rating (0 to 100 scale) (kochia (Bassia scoparia) [6]; [18]) | Wheat plant response rating (0 to 100 scale) ([7]; Postemergence, 31 g ai/ha) | Wheat plant response rating (0 to 100 scale) [7, 18] | Ryegrass, Italian plant response rating (0 to 100 scale) ([8]; Postemergence, 31 g ai/ha) | Ryegrass, Italian plant response rating (0 to 100 scale) [8, 18] | Galium plant response rating (0 to 100 scale) ([9]; Postemergence, 31 g ai/ha) | Galium plant response rating (0 to 100 scale) [9, 18] | other results
CC(C)O/N=C(/c1c(O)c(Cl)nn(C)c1=O)c1cc(Br)cc2ccccc12 [Compound 232] | 70 | 90 | 60 | 80 | 40 | 90 | 100 | 100 | 0 | 10 | 20 | 50 | 20 | 50 | 0 | 0 | 0 | 0 | 80 | 100 | Pigweed plant response rating (0 to 100 scale) ([10]; 31 g ai/ha): 70; Pigweed plant response rating (0 to 100 scale) ([10]; 125 g ai/ha): 90; Foxtail, Giant plant response rating (0 to 100 scale) ([11]; 31 g ai/ha): 70; Foxtail, Giant plant response rating (0 to 100 scale) ([11]; 125 g ai/ha): 100; Barnyardgrass plant response rating (0 to 100 scale) ([12]; 31 g ai/ha): 60; Barnyardgrass plant response rating (0 to 100 scale) ([12]; 125 g ai/ha): 100; Kochia plant response rating (0 to 100 scale) (kochia (Bassia scoparia) [13]; 31 g ai/ha): 0; Kochia plant response rating (0 to 100 scale) (kochia (Bassia scoparia) [13]; 125 g ai/ha): 10; Ryegrass, Italian plant response rating (0 to 100 scale) ([14]; 31 g ai/ha): 0; Ryegrass, Italian plant response rating (0 to 100 scale) ([14]; 125 g ai/ha): 0; Plant response rating, Barnyardgrass (Flood) [15]: 30; Plant response rating, Ducksalad (Flood) [16]: 30; Plant response rating, Rice (Flood) (rice (Oryza sativa)): 0; Plant response rating, Sedge, Umbrella (Flood) [17]: 95
CC(C)O/N=C(\c1c(O)c(Cl)nn(C)c1=O)c1cc(Br)cc2ccccc12 [Compound 233] | 60 | 90 | 30 | 80 | 40 | 60 | 100 | 100 | 0 | 10 | 0 | 30 | 0 | 10 | 0 | 0 | 0 | 0 | 60 | 90 | Pigweed plant response rating (0 to 100 scale) ([10]; 31 g ai/ha): 90; Pigweed plant response rating (0 to 100 scale) ([10]; 125 g ai/ha): 90; Foxtail, Giant plant response rating (0 to 100 scale) ([11]; 31 g ai/ha): 60; Foxtail, Giant plant response rating (0 to 100 scale) ([11]; 125 g ai/ha): 100; Barnyardgrass plant response rating (0 to 100 scale) ([12]; 31 g ai/ha): 90; Barnyardgrass plant response rating (0 to 100 scale) ([12]; 125 g ai/ha): 100; Kochia plant response rating (0 to 100 scale) (kochia (Bassia scoparia) [13]; 31 g ai/ha): 0; Kochia plant response rating (0 to 100 scale) (kochia (Bassia scoparia) [13]; 125 g ai/ha): 0; Ryegrass, Italian plant response rating (0 to 100 scale) ([14]; 31 g ai/ha): 0; Ryegrass, Italian plant response rating (0 to 100 scale) ([14]; 125 g ai/ha): 0; Plant response rating, Barnyardgrass (Flood) [15]: 30; Plant response rating, Ducksalad (Flood) [16]: 0; Plant response rating, Rice (Flood) (rice (Oryza sativa)): 0; Plant response rating, Sedge, Umbrella (Flood) [17]: 85
CCO/N=C(\c1c(O)c(Cl)nn(C)c1=O)c1cc(Br)cc2ccccc12 [Compound 235] | 50 | 90 | 40 | 80 | 60 | 90 | 100 | 100 | 0 | 10 | 20 | 20 | 50 | 60 | 0 | 0 | 0 | 0 | 90 | 90 | Pigweed plant response rating (0 to 100 scale) ([10]; 31 g ai/ha): 100; Pigweed plant response rating (0 to 100 scale) ([10]; 125 g ai/ha): 90; Foxtail, Giant plant response rating (0 to 100 scale) ([11]; 31 g ai/ha): 30; Foxtail, Giant plant response rating (0 to 100 scale) ([11]; 125 g ai/ha): 90; Barnyardgrass plant response rating (0 to 100 scale) ([12]; 31 g ai/ha): 90; Barnyardgrass plant response rating (0 to 100 scale) ([12]; 125 g ai/ha): 100; Kochia plant response rating (0 to 100 scale) (kochia (Bassia scoparia) [13]; 31 g ai/ha): 0; Kochia plant response rating (0 to 100 scale) (kochia (Bassia scoparia) [13]; 125 g ai/ha): 70; Ryegrass, Italian plant response rating (0 to 100 scale) ([14]; 31 g ai/ha): 0; Ryegrass, Italian plant response rating (0 to 100 scale) ([14]; 125 g ai/ha): 0; Plant response rating, Barnyardgrass (Flood) [15]: 60; Plant response rating, Ducksalad (Flood) [16]: 75; Plant response rating, Rice (Flood) (rice (Oryza sativa)): 0; Plant response rating, Sedge, Umbrella (Flood) [17]: 90
CCO/N=C(/c1c(O)c(Cl)nn(C)c1=O)c1cc(Br)cc2ccccc12 [Compound 236] | 20 | 60 | 60 | 90 | 70 | 90 | 100 | 100 | 20 | 30 | 0 | 30 | 30 | 50 | 0 | 0 | 0 | 20 | 90 | 100 | Pigweed plant response rating (0 to 100 scale) ([10]; 31 g ai/ha): 10; Pigweed plant response rating (0 to 100 scale) ([10]; 125 g ai/ha): 70; Foxtail, Giant plant response rating (0 to 100 scale) ([11]; 31 g ai/ha): 80; Foxtail, Giant plant response rating (0 to 100 scale) ([11]; 125 g ai/ha): 100; Barnyardgrass plant response rating (0 to 100 scale) ([12]; 31 g ai/ha): 90; Barnyardgrass plant response rating (0 to 100 scale) ([12]; 125 g ai/ha): 90; Kochia plant response rating (0 to 100 scale) (kochia (Bassia scoparia) [13]; 31 g ai/ha): 0; Kochia plant response rating (0 to 100 scale) (kochia (Bassia scoparia) [13]; 125 g ai/ha): 40; Ryegrass, Italian plant response rating (0 to 100 scale) ([14]; 31 g ai/ha): 0; Ryegrass, Italian plant response rating (0 to 100 scale) ([14]; 125 g ai/ha): 20; Plant response rating, Barnyardgrass (Flood) [15]: 35; Plant response rating, Ducksalad (Flood) [16]: 70; Plant response rating, Rice (Flood) (rice (Oryza sativa)): 0; Plant response rating, Sedge, Umbrella (Flood) [17]: 85
